Like-named read-outs stand apart in the source and are kept apart here.
Columns and labels:
[1] = system: isolated tick salivary gland; assay: fluid secretion (salivation) in the isolated tick salivary gland, modified Ramsay assay; parameters: species or system Amblyomma americanum; details: for total salivation volume: control 150 nL/5 min; for IC50: read-out: IC50 inhibition of salivation
[2] = system: isolated tick salivary gland; assay: ion secretion in saliva of the isolated tick salivary gland; parameters: species or system Amblyomma americanum
[3] = system: Amblyomma americanum; assay: tick blood feeding with compound included in the blood meal; type: in vivo; details: for average detachments during blood feeding: control 0.11
Text: All ticks were observed attempting to feed by including rhodamine B, a fluorescent tracer, in the blood meal.

[4] = system: Amblyomma americanum; assay: tick toxicity (compound in blood meal or injected); type: in vivo; details: for mortality rate: in blood meal
Text: A failure to osmoregulate during blood feeding would result in a buildup of ions at toxic concentrations into the hemocoel.

[5] = system: Aedes aegypti mosquitoes; assay: saliva collection from live mosquito after injection; type: in vivo; details: control 1.4 μL
Text: We investigated the influence of Katp modulators on mosquito salivation and blood feeding. We employed an established assay to collect the saliva from a live mosquito.

[6] = system: Aedes aegypti mosquitoes; assay: mosquito blood feeding with compound exposure; type: in vivo; details: compound added to blood
Text: Tolbutamide and glybenclamide are inhibitors of ATP-gated Kir channels.

[7] = system: Chickungunya virus; assay: infection of mosquitoes by virus after blood meal; details: in vivo
[8] = system: sugar and bitter cells of mosquito mouthparts; assay: electrophysiological recordings of maxilla gustatory sensilla
[9] = system: mosquito Kin channels; details: in vitro; cited from earlier work
[10] = system: mosquitoes; details: in vivo; cited from earlier work

## CC(N=C(NC#N)Nc1ccncc1)C(C)(C)C (racemic) [pinacidil, (±)-N-Cyano-N′-4-pyridinyl-N″-(1,2,2-trimethylpropyl)guanidine]
[1]; 600 μM pinacidil after pre-exposure to ATP
  total salivation volume: 142 nL/5 min
[1]; 600 μM pinacidil
  total salivation volume: 40 nL/5 min
[1]; 10 minutes, isolated tick salivary gland
  Effect on Salivation at 10 minutes (reduction): Reduced ~98%
[1]; Amblyomma americanum, 10 min, 10 min of salivation
  IC50: 320000 nM
[1]; Amblyomma americanum, 20 min, 20 min of salivation
  IC50: 250000 nM
[1]; Amblyomma americanum, 0.5 h, 30 min of salivation
  IC50: 120000 nM
[1]; isolated tick salivary gland
  reduction of salivary output / saliva secretion compared to control: 97%
[2]
  cations (K+ and Na+) concentrations excreted from the salivary glands: significant reduction
[3]; 400 μM in blood meal, throughout the course of feeding
  reduction of volume of blood ingested: up to 15 fold
[3]
  average detachments during blood feeding: 2.1 times per feeding
[3]; day 6 of feeding, 400 μM, control 16±4
  volume of blood ingested: 1.2±0.3 μL per day
[4]; day 1
  mortality rate: 65%
[4]; day 2
  mortality rate: 72%
[4]; day 3
  mortality rate: 88%
[4]; day 4
  mortality rate: 94%
[4]; day 5
  mortality rate: 99%
[5]
  secreted saliva volume: 0.3 µL
[6]
  reduction of total volume of blood consumed: 99%
[7]
  infection of mosquitoes by the virus after feeding on a blood meal: inhibited infection
[8]
  response of gustatory sensilla cells: elicits a spike in the sugar and bitter cells

## Cn1c(=O)c2c(ncn2Cc2ccc(C(C)(C)C)cc2)n(C)c1=O [VU063]
[1]
  effect on salivation in the isolated salivary gland: eliminated salivation
[1]; 10 min of salivation
  IC50: 772 nM
[1]; 20 min of salivation
  IC50: 560 nM
[1]; 30 min of salivation
  IC50: 410 nM
[1]; pre-exposure to ATP
  effect of pre-exposure of the gland to ATP on inhibition of salivation: negated the inhibitory effect
[2]
  cations (K+ and Na+) concentrations excreted from the salivary glands: significant reduction
[3]; VU063 at 100 μM in blood meal
  tick body weights: not statistically different from that of unfed ticks
[3]; compound in blood meal, VU063 at 100 μM
  volume of ingested blood: below the limits of detection
[3]
  average detachments during blood feeding: 3.6 times per feeding
[4]; exposed while feeding
  pattern of mortality as a function of time compared with pinacidil: nearly-identical pattern of mortality
[5]
  secreted saliva volume: 0.1 µL
[6]
  reduction of total volume of blood consumed: 99%

## CCC(=O)N1c2ccc(S(=O)(=O)Nc3cccc(OC)c3)cc2CC1C (stereo not shown) [VU625]
[9]
  IC50: ~100 nM
[10]
  topical toxicity to mosquitoes: not topically toxic

— patent US11632953B2, “Method for controlling hematophagous or sap-feeding arthropods” (Board of Supervisors of Louisiana State University and …, priority 2016, dated 2023)
